The values that follow come from ChEMBL document CHEMBL3390848, “Affinity selection and sequence-activity relationships of HIV-1 membrane fusion inhibitors directed at the drug-resistant variants” (Medchemcomm, 2010).

Usually Tm stands for the temperature at which the thermal transition is half complete. For orientation: EC50 means the concentration that produces a half-maximal response.

Structures are written as SMILES. Residues, ends and D or L forms follow the SMILES beside them.

For assay [1], the system named is Human immunodeficiency virus 1. Put plainly: Binding affinity to HIV1 His-tagged N-terminal heptad repeat of envelope glycoprotein gp41 assessed as recovery of N36-drug complex at 0.6 uM after 2 hrs by LC-MS analysis.
For assay [2], the system named is Human immunodeficiency virus 1. The experiment in a line: Thermal stability of HIV1 envelope glycoprotein gp41 His-tagged N-terminal heptad repeat N36-drug complex assessed as thermal unfolding transition state by measuring molar ellipticity at 4 to 90 degC by circular dichroic spectra analysis.
Assay [3] relates to Human immunodeficiency virus 1. Put plainly: Binding affinity to HIV1 His-tagged N-terminal heptad repeat of envelope glycoprotein gp41 assessed as recovery of N36-drug complex at 6 uM after 2 hrs by LC-MS analysis.
Assay [4] relates to Human immunodeficiency virus 1. The experiment in a line: Binding affinity to HIV1 His-tagged N-terminal heptad repeat of envelope glycoprotein gp41 assessed as recovery of N36-drug complex at 1 uM after 2 hrs by LC-MS analysis.
The test system of assay [5] is Human immunodeficiency virus 1. Put plainly: Antiviral activity against HIV1 NL4-3 harboring gp41 D36G mutant infected in human HeLa cells expressing CD4-LTR-beta-gal assessed as inhibition of viral replication after 48 hrs by MAGI assay. In kind it is functional, organism-based.
Assay [6] deals with Human immunodeficiency virus 1. The experiment in a line: Binding affinity to HIV1 His-tagged N-terminal heptad repeat of envelope glycoprotein gp41 assessed as recovery of N36-drug complex at 10 uM after 2 hrs by LC-MS analysis.

As for `CC[C@H](C)[C@H](NC(=O)[C@H](CCCCN)NC(=O)[C@H](CCCCN)NC(=O)[C@H](CC(=O)O)NC(=O)[C@H](Cc1c[nH]c2ccccc12)NC(=O)[C@H](CCC(=O)O)NC(=O)[C@H](CCC(=O)O)NC(=O)[C@H](Cc1c[nH]c2ccccc12)NC(C)=O)C(=O)N[C@@H](CCC(=O)O)C(=O)N[C@@H](CCC(=O)O)C(=O)N[C@@H](Cc1ccc(O)cc1)C(=O)N[C@H](C(=O)N[C@@H](CCCCN)C(=O)N[C@@H](CCCCN)C(=O)N[C@H](C(=O)N[C@@H](CCC(=O)O)C(=O)N[C@@H](CCC(=O)O)C(=O)N[C@@H](CC(C)C)C(=O)N[C@H](C(=O)N[C@@H](CCCCN)C(=O)N[C@@H](CCCCN)C(=O)N[C@H](C(=O)N[C@@H](CCC(=O)O)C(=O)N[C@@H](CCC(=O)O)C(=O)N[C@@H](CCC(N)=O)C(=O)N[C@@H](CCC(N)=O)C(=O)N[C@@H](CCCCN)C(=O)N[C@@H](CCCCN)C(=O)N[C@@H](CC(N)=O)C(=O)N[C@@H](CCC(=O)O)C(=O)N[C@@H](CCC(=O)O)C(=O)N[C@@H](CCC(=O)O)C(=O)N[C@@H](CC(C)C)C(=O)N[C@@H](CCCCN)C(=O)N[C@@H](CCCCN)C(N)=O)C(C)C)[C@@H](C)CC)[C@@H](C)CC)[C@@H](C)O` (Ac-WEEWDKKIEEYTKKIEELIKKVEEQQKKNEEELKK-NH2), the Activity was found to be 7% in assay [1], 6% in assay [3], 12.1% in assay [4] and 2.8% in assay [6]. For the same molecule, the Tm in assay [2] was 79.9 °C. Moreover, in assay [5], the concentration giving a half-maximal response (EC50) is 1.9 nM.
With `CC[C@H](C)[C@H](NC(=O)[C@H](CCCCN)NC(=O)[C@H](CCCCN)NC(=O)[C@H](CC(=O)O)NC(=O)[C@H](Cc1c[nH]c2ccccc12)NC(=O)[C@H](CCC(=O)O)NC(=O)[C@H](CCC(=O)O)NC(=O)[C@H](Cc1c[nH]c2ccccc12)NC(C)=O)C(=O)N[C@@H](CCC(=O)O)C(=O)N[C@@H](CCC(=O)O)C(=O)N[C@@H](Cc1ccc(O)cc1)C(=O)N[C@H](C(=O)N[C@@H](CCCCN)C(=O)N[C@@H](CCCCN)C(=O)N[C@H](C(=O)N[C@@H](CCC(=O)O)C(=O)N[C@@H](CCC(=O)O)C(=O)N[C@@H](CC(C)C)C(=O)N[C@H](C(=O)N[C@@H](CCCCN)C(=O)N[C@@H](CCCCN)C(=O)N[C@H](C(=O)N[C@@H](CCC(=O)O)C(=O)N[C@@H](CCC(=O)O)C(=O)N[C@@H](CCC(N)=O)C(=O)N[C@@H](CCC(N)=O)C(=O)N[C@@H](CCCCN)C(=O)N[C@@H](CCCCN)C(=O)N[C@@H](CC(N)=O)C(=O)N[C@@H](CCC(=O)O)C(=O)N[C@@H](CCC(=O)O)C(=O)N[C@@H](CCC(=O)O)C(=O)N[C@@H](CC(C)C)C(=O)N[C@@H](CCCCN)C(=O)N[C@@H](CCCCN)C(N)=O)[C@@H](C)CC)[C@@H](C)CC)[C@@H](C)CC)[C@@H](C)O` (Ac-WEEWDKKIEEYTKKIEELIKKIEEQQKKNEEELKK-NH2), the Activity amounted to 6.9% in assay [1], 7.6% in assay [3], 11.3% in assay [4] and 4.7% in assay [6]. Also, in assay [2], the Tm is 84.6 °C. Moreover, the EC50 in assay [5] is 1.3 nM.
Regarding `CC[C@H](C)[C@H](NC(=O)[C@H](CC(C)C)NC(=O)[C@H](CCC(=O)O)NC(=O)[C@H](CCC(=O)O)NC(=O)[C@@H](NC(=O)[C@H](CCCCN)NC(=O)[C@H](CCCCN)NC(=O)[C@@H](NC(=O)[C@H](Cc1ccc(O)cc1)NC(=O)[C@H](CCC(=O)O)NC(=O)[C@H](CCC(=O)O)NC(=O)[C@@H](NC(=O)[C@H](CCCCN)NC(=O)[C@H](CCCCN)NC(=O)[C@H](CC(=O)O)NC(=O)[C@H](Cc1c[nH]c2ccccc12)NC(=O)[C@H](CCC(=O)O)NC(=O)[C@H](CCC(=O)O)NC(=O)[C@H](Cc1c[nH]c2ccccc12)NC(C)=O)[C@@H](C)CC)[C@@H](C)O)[C@@H](C)CC)C(=O)N[C@@H](CCCCN)C(=O)N[C@@H](CCCCN)C(=O)N[C@@H](Cc1cnc[nH]1)C(=O)N[C@@H](CCC(=O)O)C(=O)N[C@@H](CCC(=O)O)C(=O)N[C@@H](CCC(N)=O)C(=O)N[C@@H](CCC(N)=O)C(=O)N[C@@H](CCCCN)C(=O)N[C@@H](CCCCN)C(=O)N[C@@H](CC(N)=O)C(=O)N[C@@H](CCC(=O)O)C(=O)N[C@@H](CCC(=O)O)C(=O)N[C@@H](CCC(=O)O)C(=O)N[C@@H](CC(C)C)C(=O)N[C@@H](CCCCN)C(=O)N[C@@H](CCCCN)C(N)=O` (Ac-WEEWDKKIEEYTKKIEELIKKHEEQQKKNEEELKK-NH2), the Activity in assay [1] was 5.7%; in assay [3], 0.6%; in assay [4], 2.4%; in assay [6] it was 0.9%. For the same molecule, the Tm in assay [2] amounted to 62.9 °C. Besides, the concentration for a half-maximal effect (EC50) in assay [5] amounted to 1.9 nM.
As for `CC[C@H](C)[C@H](NC(=O)[C@H](CC(C)C)NC(=O)[C@H](CCC(=O)O)NC(=O)[C@H](CCC(=O)O)NC(=O)[C@@H](NC(=O)[C@H](CCCCN)NC(=O)[C@H](CCCCN)NC(=O)[C@@H](NC(=O)[C@H](Cc1ccc(O)cc1)NC(=O)[C@H](CCC(=O)O)NC(=O)[C@H](CCC(=O)O)NC(=O)[C@@H](NC(=O)[C@H](CCCCN)NC(=O)[C@H](CCCCN)NC(=O)[C@H](CC(=O)O)NC(=O)[C@H](Cc1c[nH]c2ccccc12)NC(=O)[C@H](CCC(=O)O)NC(=O)[C@H](CCC(=O)O)NC(=O)[C@H](Cc1c[nH]c2ccccc12)NC(C)=O)[C@@H](C)CC)[C@@H](C)O)[C@@H](C)CC)C(=O)N[C@@H](CCCCN)C(=O)N[C@@H](CCCCN)C(=O)N[C@@H](Cc1ccccc1)C(=O)N[C@@H](CCC(=O)O)C(=O)N[C@@H](CCC(=O)O)C(=O)N[C@@H](CCC(N)=O)C(=O)N[C@@H](CCC(N)=O)C(=O)N[C@@H](CCCCN)C(=O)N[C@@H](CCCCN)C(=O)N[C@@H](CC(N)=O)C(=O)N[C@@H](CCC(=O)O)C(=O)N[C@@H](CCC(=O)O)C(=O)N[C@@H](CCC(=O)O)C(=O)N[C@@H](CC(C)C)C(=O)N[C@@H](CCCCN)C(=O)N[C@@H](CCCCN)C(N)=O` (Ac-WEEWDKKIEEYTKKIEELIKKFEEQQKKNEEELKK-NH2), the Activity in assay [1] was found to be 6.3%; in assay [3], 0.6%; in assay [4], 4%; in assay [6], 0.7%. For the same molecule, the Tm in assay [2] turned out to be 72.9 °C. Further, the EC50 in assay [5] worked out at 1.5 nM.
For the molecule `CC[C@H](C)[C@H](NC(=O)[C@H](CC(C)C)NC(=O)[C@H](CCC(=O)O)NC(=O)[C@H](CCC(=O)O)NC(=O)[C@@H](NC(=O)[C@H](CCCCN)NC(=O)[C@H](CCCCN)NC(=O)[C@@H](NC(=O)[C@H](Cc1ccc(O)cc1)NC(=O)[C@H](CCC(=O)O)NC(=O)[C@H](CCC(=O)O)NC(=O)[C@@H](NC(=O)[C@H](CCCCN)NC(=O)[C@H](CCCCN)NC(=O)[C@H](CC(=O)O)NC(=O)[C@H](Cc1c[nH]c2ccccc12)NC(=O)[C@H](CCC(=O)O)NC(=O)[C@H](CCC(=O)O)NC(=O)[C@H](Cc1c[nH]c2ccccc12)NC(C)=O)[C@@H](C)CC)[C@@H](C)O)[C@@H](C)CC)C(=O)N[C@@H](CCCCN)C(=O)N[C@@H](CCCCN)C(=O)N[C@@H](CCC(N)=O)C(=O)N[C@@H](CCC(=O)O)C(=O)N[C@@H](CCC(=O)O)C(=O)N[C@@H](CCC(N)=O)C(=O)N[C@@H](CCC(N)=O)C(=O)N[C@@H](CCCCN)C(=O)N[C@@H](CCCCN)C(=O)N[C@@H](CC(N)=O)C(=O)N[C@@H](CCC(=O)O)C(=O)N[C@@H](CCC(=O)O)C(=O)N[C@@H](CCC(=O)O)C(=O)N[C@@H](CC(C)C)C(=O)N[C@@H](CCCCN)C(=O)N[C@@H](CCCCN)C(N)=O` (Ac-WEEWDKKIEEYTKKIEELIKKQEEQQKKNEEELKK-NH2), the Activity in assay [1] worked out at 6.1%; in assay [3] it was 0.5%; in assay [4], 2.1%; in assay [6], 0.9%. Also, the midpoint of thermal melting (Tm) in assay [2] came to 65.9 °C. Also, in assay [5], the half-maximal effective concentration (EC50) is 2.4 nM.
